Assay: Involuntary cough on administration of the active agent
Assay type: in vivo

cough (administered via an alternative route to pulmonary inhalation): the cough is not induced | involuntary cough (administered via pulmonary inhalation): induces an involuntary cough
SMILES: CN(C)CCCN1c2ccccc2CCc2ccc(Cl)cc21 [clomipramine]
